Results on one compound are retold here after patent US7479506B2, “Agent or method for treating severe aphasia in cerebrovascular accident chronic stage” (priority 2003, dated 2009).

Each structure is given as a SMILES string.

Series [1] can be described thus: Acute toxicity. Particulars: in vivo. From the text: Acute toxicity of the compound represented by formula (I) was examined and it has been confirmed that this is a compound having high safety.
For series [2] the following is noted: 60 g/day for gait disturbance of cerebellar degeneration; Movement Disorder, 2003, 18, pp. 457-459; cited from earlier work.
Series [3] concerns aphasia after cerebrovascular accidents. Particulars: acute phase after cerebrovascular accidents, combination use of speech therapy; cited from earlier work.

In the case of `NC(=O)CN1CCCC1=O` [piracetam, 2-oxo-1-pyrrolidineacetamide], in series [1], the acute toxicity result was “high safety”. Besides, in series [2], the safety result is given as “no problem on its safety”. In series [3], the “therapeutic effect on aphasia” value is on record as “therapeutic effect of piracetam is found”.
